Literature values as cited in US20190209552A1, “PHARMACEUTICAL COMPOSITION OF [ (3-HYDROXY-4 -PYRON-2-YL) METHYL] -AMINE DERIVATIVES AND DNA DEMETHYLATING AGENTS AND THEIR USE AS ANTI-NEOPLASTIC DRUGS” (UNIVERSITA' DEGLI STUDI DI URBINO "CARLO BO", priority 2016, published 2019).

Experiments:
[1] = test system: Ewing's sarcoma
[2] = test system: Ewing's sarcoma; remark: listed apart in the source

CN1CCN(Cc2occc(=O)c2O)CCN(C)CCN(Cc2occc(=O)c2O)CC1 [Maltonis, 4(N), 10(N)-bis [(3-hydroxy-4-Pyron-2-yl)methyl]-1,7-dimethyl-1,4,7,10tetraazacyclododecane]
efficacy in vitro [1]: effective | efficacy in vivo [2]: effective
